According to US8796466B2, “Hepatitis C virus inhibitors” (Bristol-Myers Squibb Company, priority 2009, dated 2014):

How the values were obtained:
HCV 1b genotype = test: HCV Replicon assay (HCV 1b genotype); type: cell-based, Hepatitis C virus; settings: Hepatitis C virus; HCV 1b genotype replicon; class symbol; read-out: Range (EC50 values against HCV 1b)
Outline: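 HCV-neo replicon cells, wild-type plus lines carrying NS5A-region mutations, were exposed to compound; luciferase-reporter replicon variants were also used.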

HCV = settings: literature references; cited from earlier work

Row | Compound | EC50 (HCV 1b genotype) [nM] | activity against HCV in clinical trials (HCV)
1 | COC(=O)N[C@H](C(=O)N1[C@@H]2C[C@@H]2C[C@H]1c1nc(-c2ccc([C@@H]3C[C@H]3c3ccc(-c4c[nH]c([C@@H]5C[C@H]6C[C@H]6N5C(=O)[C@@H](NC(=O)OC)C(C)C)n4)cc3)cc2)c[nH]1)C(C)C [m9.5, methyl ((1S)-1-(((1R,3S,5R)-3-(4-(4-((1R,2R)-2-(4-(2-((1R,3S,5R)-2-((2S)-2-((methoxycarbonyl)amino)-3-methylbutanoyl)-2-azabicyclo[3.1.0]hex-3-yl)-1H-imidazol-4-yl)phenyl)cyclopropyl)phenyl)-1H-imidazol-2-yl)-2-azabicyclo[3.1.0]hex-2-yl)carbonyl)-2-methylpropyl)carbamate] | 0.002 to 0.099 | –
2 | cyclosporin A | – | active against HCV
